Columns and labels:
[1] = tested on: sexually mature male cynomolgus monkeys; test: 39-week oral pharmacology and toxicology study in male cynomolgus monkeys (13-week interim); format: in vivo, cynomolgus monkey
[2] = tested on: male Sprague-Dawley rats; test: Recovery of testosterone levels after 3-day oral dosing in rats; format: in vivo, rat; conditions: 1 mg/kg oral for three days; no recovery
Text: (§1) Thirty-five (35) male Sprague-Dawley rats weighing approximately 200 g were maintained on a 12-h light/dark cycle with food (2016 Teklad Global 16% Protein Rodent Diet, Harlan, Madison, Wis.) and water available ad libitum. The animal protocol was reviewed and approved by the Institutional Animal Care and Use Committee of the University of Tennessee.
The test article for this study was weighed and dissolved in PEG 300 (100%) (Acros Organics, NJ) to prepare the appropriate dose formulations. Animals were randomly assigned to one of the […] treatment groups (n=5 animals/group). The animals were housed in groups of 2 to 3 animals per cage. Group 1 was sacrificed at the initiation of the study (Day 1) for determination of baseline testosterone levels in intact animals. Groups 2-7 received daily doses of 1, 3, or 30 mg/kg via oral gavage (˜200 uL) for three days. Groups 2, 3, and 4 were sacrificed on Day 4 to measure maximal testosterone suppression. Groups 5, 6, and 7 were allowed to recover for 14 days with a drug free washout period.

[3] = tested on: intact and orchiectomized (ORX) male Sprague-Dawley rats; test: Suppression of LH and testosterone in intact and ORX rats, 14-day subcutaneous dosing; format: in vivo, rat; conditions: for Serum testosterone: LLOQ 0.08 ng/mL
Experimental: An in vivo dose-response study was conducted to evaluate the effect of Compound IV on LH suppression in intact and orchiectomized (ORX) male rats.
as §1, with “Male” for “Thirty-five (35) male”
The test article for this study was weighed and dissolved in 10% DMSO (Fisher) diluted with PEG 300 (Acros Organics, NJ) to prepare the appropriate dose formulations. For this study, sixty (60) male Sprague-Dawley rats were randomized by body weight, and assigned to one of the twelve treatment groups (n=5 animals/group). The animals were housed in groups of 2 to 3 animals per cage. Control groups (intact and orchidectomized (ORX)) were administered vehicle daily. […]
After a 14-day dosing regimen, the animals were sacrificed under anesthesia (ketamine/xylazine, 87:13 mg/kg) and body weights were recorded. In addition, ventral prostate, seminal vesicles, and levator ani muscle were removed, cleaned of extraneous tissue, and individually weighed. Organ weight were normalized to body weight and expressed as a percentage of intact control. Blood was collected from the abdominal aorta under isoflurane anesthesia and allowed to clot. Serum was separated by centrifugation and stored at −80° C. prior to determination of serum hormone levels. Serum luteinizing hormone (LH) and follicle stimulating hormone (FSH) concentrations were determined by the Rat Pituitary Luminex Assay (Millipore, Billerica, Mass.) according to manufacturer's directions. The lower limit of quantitation for this assay was 3.2 pg/mL for LH and 32 pg/mL for FSH. Testosterone was measured by a Testosterone EIA (Alpco Diagnostics, Salem, N.H.) with a LLOQ of 0.08 ng/mL. Serum hormone values below the lower limit of quantitation (BLOQ) were omitted from analysis of group means. Therefore, the reported value for LH and T in the groups with samples BLOQ is higher than the actual value. This method of analysis provided the most conservative estimate of LH and T suppression. Fisher's Least Significant Difference test was used to compare individual dose groups to the intact and ORX vehicle control groups. Significance was defined a priori as a P-value <0.05.

SMILES: O=C(c1ccc(O)c(F)c1)N(c1ccc(O)cc1)c1ccc(F)cc1 [Compound IV, 3-fluoro-N-(4-fluorophenyl)-4-hydroxy-N-(4-hydroxyphenyl)benzamide]
- Monkeys with testosterone below the limit of quantification ([1]; 100 mg/kg/day oral, after 90 days, Group 4): 6 of 10
- Initial testosterone flare ([1]; any Compound IV dose, up to 100 mg/kg/day): not observed
- Serum testosterone after dosing [2]: No significant suppression
- Serum testosterone ([3]; Intact rats, 10 mg/kg per day s.c., 14 days): BLOQ
- Serum testosterone ([3]; Intact rats, 30 mg/kg per day s.c., 14 days): BLOQ
- Serum testosterone ([3]; ORX rats, all dose groups (0.3-30 mg/kg/day)): BLOQ
- Suppression of serum testosterone ([3]; intact male rats, 3, 10 and 300 mg/kg, after 24 h, 72 h and 168 h (FIG. 9)): Rapid and potent suppression
- Doses with significant reduction of FSH levels ([3]; intact rats, 14 days s.c.): ≥ 10 mg/kg/day
- Doses with significant reduction of testosterone levels ([3]; intact rats, 14 days s.c.): ≥ 3 mg/kg per day

Reference: US9624161B2 (priority 2009, dated 2017)
